Assay results published in paper PMC9292375, “Structural basis of an epitope tagging system derived from Haloarcula marismortui bacteriorhodopsin I D94N and its monoclonal antibody GD‐26” (The Febs Journal, 2021).
Values joined by “and” are separate entries in the source; they are usually repeats but may differ in a detail not shown here. Identical values can stand only once. “Also recorded” adds a separate entry of the source. Blank lines part the entries; values can stand above or below the molecule they belong to. Where a SMILES comes first, the peptide text is derived from it.

Tests used:
[1] = Protease resistance of the TD tag during expression and purification; conditions: without protease inhibitors; tag remains attached and detectable after expression and purification from bacterial and mammalian cell systems
G196 = biological target: G196; parameters: method as in PMID 28266535; conditions: anti‐tag antibody G196; read-out: Affinity (K D); cited from earlier work
M2 = conditions: read-out: Affinity (K D); anti‐tag antibody M2; cited from earlier work
9E10 = conditions: anti‐tag antibody 9E10; read-out: Affinity (K D); cited from earlier work
GD‐26 Fab = experiment: ITC titration of peptides or TD‐tagged eGFP into GD‐26 Fab; format: binding, mouse; conditions: 25 °C, Tris buffer pH 7.5, engineered synthetic peptides, single experiment (n = 1)
Protocol: The titration experiments were performed with a MicroCal PEAQ‐ITC Automated (Malvern Panalytical, Malvern, UK) at 25 °C. The ITC sample cell contained 200 μL of GD‐26 IgG or GD‐26 Fab in the Tris buffer (50 mM Tris, 150 mM NaCl, pH 7.5). In the syringe, 40 μL of synthetic peptides (peptide III–V) or TD‐tagged eGFP in the same Tris buffer was injected into the sample cell using 20 injections (0.4 μL for the first injection). Prior to data analysis, heats of dilution generated by injecting the peptide solution into the buffer in the sample cell were subtracted from the experimental data. The experimental raw data were analysed using the MicroCal PEAQ‐ITC Analysis software package provided with the instrument. The first data point was removed for fitting the data to a one‐set‐of‐sites model. After entering sample concentrations, the inbuilt function for fitting is operated by clicking iteration button until a good fit to the experimental data points of the isotherms is achieved and Chi‐squared is no longer decreasing. The final fitting parameters including K D, changes in enthalpy (ΔH), entropy (ΔS) and Gibb's free energy (ΔG) and binding stoichiometry were generated by the same software.

Nanobody ALFA = biological target: Nanobody ALFA; parameters: method as in PMID 31562305; conditions: read-out: Affinity (K D); cited from earlier work
4B2 = biological target: 4B2; parameters: method as in PMID 24480187; conditions: anti‐tag antibody 4B2; read-out: Affinity (K D); cited from earlier work
[2] = biological target: T1, TD peptide (GTGATPADD), peptide V from the C terminus of HmBRI D94N (Haloarcula marismortui HmBRI C terminus …); experiment: ITC; synthetic peptide in the syringe titrated into GD-26 Fab or GD-26 IgG (10 μM) in the cell; 25 °C; 50 mM Tris, 150 mM NaCl, pH 7.5; one-set-of-sites model; conditions: both partners purified
T1 construct: nine residues at the C terminus of Haloarcula marismortui bacteriorhodopsin I (HmBRI); residue numbers 1-9 count on: the TD peptide; also called TD tag; wild-type TD peptide; source: synthetic peptide
T1 chain: GTGATPADD

[3] = Storage stability of GD‐26 IgG; format: physicochemical; conditions: stored at 4 °C in Tris buffer

Molecule: C[C@H](NC(=O)CNC(=O)[C@@H](NC(=O)CN)[C@@H](C)O)C(=O)N[C@H](C(=O)N1CCC[C@H]1C(=O)N[C@@H](C)C(=O)N[C@@H](CC(=O)O)C(=O)N[C@@H](CC(=O)O)C(=O)O)[C@@H](C)O [TD] (H-GTGATPADD-OH)
cellular protease resistance and proteolytic stability [1]: good cellular protease resistance and proteolytic stability

Molecule: DLVPR
Kd (G196): 1.25 nM

Molecule: DYKDDDDK [FLAG]
Kd (M2): 3 to 31 nM

Molecule: EQKLISEEDL [c‐Myc]
Kd (9E10): 2.2 to 560 nM

Molecule: GTGATPA [C2, engineered TD peptide, Asp9 and Asp8 depleted]
K D (GD‐26 Fab): complete loss of binding; also recorded: No binding

Molecule: SRLEEELRRRLTE [ALFA]
Kd (Nanobody ALFA): 0.026 nM

Molecule: TPADD [N4, engineered TD peptide, Gly1 to Ala4 deleted]
K D (GD‐26 Fab): completely diminished its capability to bind; also recorded: No binding

Molecule: YPYDVPDYA [HA]
Kd (4B2): 1.6 nM

Kd [2]: 22.6 nM and 18.8 nM
dH [2]: -12.2 kcal/mol
stoichiometry N [2]: 2.28 sites and 2.27 sites
B1: GD-26 IgG (recombinant monoclonal antibody GD-26, mouse IgG2a) (antibody, V domains shown)
VH: QVQLRQSGPELVKPGASVKMSCRASGYTFTNYNIHWVRQRPGQGLEWIGWIYPVDGTTKYNEKFKDKTTLTSDKSSSTAYMSLSGLTSEDSAIYFCARGLDNWGQGTSVTVSS
VL: DVVLTQTPLSLSVTIGQPASISCRSSQRLLYSNGKTYLNWFQQRPGQAPKYLMFQVSKLGPGIPARFSGSGSETDFTLKISRVEAEDLGVYYCFQGTFFPHTFGGGTKLEMK
notes: PDB 7DOH); Mouse IgG2a isotype; the same light-chain plasmid as for the Fab; source: Expi293F, transient co-transfection, secreted; purified (HiTrap Protein G, Superdex 200 gel filtration); copies: 2 + 2

B2: GD‐26 IgG: recombinant monoclonal antibody, mouse IgG2a isotype, raised against HmBRI D94N (antibody, V domains shown)
VH: QVQLRQSGPELVKPGASVKMSCRASGYTFTNYNIHWVRQRPGQGLEWIGWIYPVDGTTKYNEKFKDKTTLTSDKSSSTAYMSLSGLTSEDSAIYFCARGLDNWGQGTSVTVSS
VL: DVVLTQTPLSLSVTIGQPASISCRSSQRLLYSNGKTYLNWFQQRPGQAPKYLMFQVSKLGPGIPARFSGSGSETDFTLKISRVEAEDLGVYYCFQGTFFPHTFGGGTKLEMK
long‐term stability on storage [3]: over a year
